These results are taken from US12611380B2, “Solution and method for reducing the virulence of viruses, bacteria, yeasts, or fungus” (priority 2020, dated 2026).

Experiment [1] has as its system viral illnesses such as pharyngitis and rhinorrhea. Put plainly: ILCS spray or wash for the nasopharynx cavity. It counts as in vivo. The conditions noted are these: 2-50 mM ILCS spray or wash.
Experiment [2] is described as follows: Clinical observation on washing with ILPS. Format: in vivo. The conditions noted are these: general cosmetic use.

With “potassium salt of isomerized linoleic acid [ILCS]”, the “symptoms associated with viral illnesses” value in experiment [1] was “reduced symptoms”. In experiment [2], the acne result is reported as “clinical remission of acne”.
